# From patent US6306857A, “Methods for treating or preventing alzheimer's disease using substituted 1-aryl-3-piperazin-1'-yl propanones” (Molecular Geriatrics Corporation, priority 1999, dated 2001)
# Counter-ions that a name gives are not always drawn.
# Tested on: microtubule cytoskeleton of cultured human CG neuroblastoma cells
# Assay: Antimicrotubule activity (tubulin immunofluorescence microscopy)
# Assay type: cell-based
# Conditions: Neuroblastoma cell, 2 h, read-out: Concentration where microtubule destabilization occurs
# Experimental: The compounds of the invention according to formula I are effective in destabilizing microtubules, thus are useful in treating certain neoplastic diseases. Indirect immunofluorescence microscopy using the monoclonal antibodies to tubulin is used herein to determine the activity of the compounds of this invention in promoting depolymerization of the microtubule cytoskeleton in cultured cells. The following assay was employed.
# Cultured human CG neuroblastoma cells were seeded 1:3 from confluent cultures onto sterile 11×22 mm coverslips in 6 well tissue culture plates 16 hr prior to treatment. The following day, the tissue culture medium is removed and the cells are exposed to various concentrations of compounds of this invention in Krebs Ringer Hepes (KRH) buffer containing a final concentration of 0.5% DMSO as carrier. Incubations were performed at 37° C. in a humidified 5% CO2 atmosphere for 2 hr. After incubation, the cells were fixed in 3% TEM grade formaldehyde in PBS for 45 min at room temperature.
# To visualize the effects of the compounds of the invention on the microtubule cytoskeleton, the cells were processed for tubulin immunofluorescence. Briefly, the cells were permeabilized in 0.5% Triton-X 100 in PBS for 5 min. The cells were washed 2× with PBS and aldehydes reduced using 0.5 mg/ml NaBH4 in PBS for 5 min. Subsequently, the cells were blocked for 10 min in 1.5% BSA and 1.5% nonfat dry milk in PBS (blocking solution, BS) for 10 min. The cells were then incubated for 30 min at 37° C. with the monoclonal antibody Tu27B which recognizes b-tubulin (dilution 1:20 in BS). Subsequently, the cells were washed 2× in PBS and once in BS. The cells were then incubated for 30 min at 37° C. with sheep antimouse IgG conjugated to FITC. After incubation, the cells were washed 2× in PBS and once in BS and incubated. for 30 min at 37° C. with rabbit antisheep IgG conjugated to FITC. The cells were rinsed in PBS, counterstained with Hoechst 33285 in PBS (1 μg/ml), and rinsed in PBS. The coverslips were mounted in 9:1 glycerol:PBS containing 1 mg/ml p-phenylenediamine and sealed with nail polish.
# The cells were viewed using a Jenalumar epifluorescence microscope equipped with the proper filters for Fluorescein Isothiocyanate (FITC) excitation and emission. Lack of effect of a compound is evidenced by the presence of an intact microtubule network in interphase cells, or a mitotic spindle dividing cells. Antineoplastic compounds of the invention at effective doses result in the disapperance of microtubules in both interphase and mitotic cells.
row,Structure (SMILES),minimal effective concentration [µM]
1,"O=C(CCN1CCN(Cc2ccccc2)CC1)c1ccc(Nc2ccc([N+](=O)[O-])cc2[N+](=O)[O-])cc1 [Example 113, 1-(4""-[2'"",4'""-Dinitrophenylamino]phenyl)-3-(4'-benzyl-1'-piperazinyl)-1-propanone dihydrochloride]",20

# Same assay, conditions: Neuroblastoma cell, 2 hr at 37° C., 0.5% DMSO in KRH, read-out: Concentration where microtubule destabilization occurs
row,Structure (SMILES),minimal effective concentration [µM]
1,"O=C(CCN1CCN(Cc2ccccc2)CC1)c1ccc(C2CCCCC2)cc1 [Example 27, 1-(p-Cyclohexylphenyl)-3-(4'-benzyl-1'-piperazinyl)-1-propanone dihydrochloride]",20
2,"O=C(CCN1CCN(Cc2ccccc2)CC1)c1cc([N+](=O)[O-])c(Cl)s1 [Example 95, 1-(5""-Chloro-4""-nitro-2""-thienyl)-3-(4'-benzyl-1'-piperazinyl)-1-propanone dihydrochloride]",20
3,"N#Cc1cccc(C(=O)CCN2CCN(Cc3ccccc3)CC2)c1 [Example 60, 1-(m-Cyanophenyl)-3-(4'-benzyl-1'-piperazinyl)-1-propanone dihydrochloride]",20
4,"O=C(CCN1CCN(Cc2ccccc2)CC1)c1conc1-c1ccccc1 [Example 112, 1-(3""-Phenylisoxazol-4""-yl)-3-(4'-benzyl-1'-piperazinyl)-1-propanone dihydrochloride]",20
5,"N#Cc1ccc(C(=O)CCN2CCN(Cc3ccccc3)CC2)s1 [Example 85, 1-(5""-Cyano-2""-thienyl)-3-(4'-benzyl-1'-piperazinyl)-1-propanone dihydrochloride]",20
6,"O=C(CCN1CCN(Cc2ccccc2)CC1)c1cccs1 [Example 7, 1-(2""-Thienyl)-3-(4'-benzyl-1'-piperazinyl)-1-propanone dihydrochloride]",20
7,"O=C(CCN1CCN(Cc2cc(F)ccc2F)CC1)c1ccsc1 [Example 38, 1-(3""-Thienyl)-3-[4'-(2'"",5'""-difluorobenzyl)-1'-piperazinyl]-1-propanone dihydrochloride]",20
8,"O=C(CCN1CCN(C(=O)c2c(F)cccc2F)CC1)c1ccccc1F [Example 41, 1-(o-Fluorophenyl)-3-[4'-(2"",6""-difluorobenzoyl)-1'-piperazinyl]-1-propanone hydrochloride]",20
